Data reported in US20110207801A1, “Novel Genes, Compositions, and Methods for Modulating the Unfolded Protein Response” (University of Michigan, priority 2002, published 2011).

Tests used:
hsp-3 = hsp-3 expression upon ER stress (Northern blot, quantitative Taqman RT-PCR); format: in vivo, C. elegans; settings: wild-type 1.5 day-old L2 larvae, 4 hours
Method: (§1) For Northern analysis, mixed-stage nematodes grown in liquid culture were treated with 3 mM of DTT (Calbiochem) for up to 8 hours. Heat-shock treatment was performed at 30° C. for 1 hour. For single worm analysis, individual L2 larvae grown on plates were treated with 2.5 mM of DTT or 28 μg/ml of tunicamycin (Calbiochem) for 4 hours. To study survival to tunicamycin, gravid adults were allowed to lay eggs on plates containing tunicamycin (0 to 7.5 μg/ml) for 4 hours and then removed from the plates. Eggs were counted and studied 3 days later.
Total RNA preparation and Northern blot analysis was performed as described (Chen et al., 2000). The blot was hybridized sequentially with digoxigenin (DIG)-labeled DNA probes for hsp-3 and for 26S rRNA prepared with DIG-high prime labeling Kit (Roche).
Taqman RT-PCR was performed as described by Heid et al. (1996). The lack of DNA contamination in RNA preparations was confirmed by a 1000-fold decrease in quantitative PCR yield when reverse transcriptase was omitted. A unique sequence in the 3′UTR of act-1 and act-3 was amplified using Taqman PCR (primers act-F/act-R and act-probe). The primers (hsp-3-F/hsp-3-R) and the hsp-3-probe probe were used for detecting hsp-3 transcripts. The primers (hsp-4-F and hsp-4-R) and the hsp-4-probe probe were used for detecting hsp-4 transcripts. […]

hsp-4 = hsp-4 expression upon ER stress (quantitative Taqman RT-PCR); format: in vivo, C. elegans; settings: wild-type 1.5 day-old L2 larvae, 4 hours
Method: as §1
Taqman RT-PCR was performed as described by Heid et al. (1996). The lack of DNA contamination in RNA preparations was confirmed by a 1000-fold decrease in quantitative PCR yield when reverse transcriptase was omitted. A unique sequence in the 3′UTR of act-1 and act-3 was amplified using Taqman PCR (primers act-F/act-R and act-probe). The primers (hsp-3-F/hsp-3-R) and the hsp-3-probe probe were used for detecting hsp-3 transcripts. The primers (hsp-4-F and hsp-4-R) and the hsp-4-probe probe were used for detecting hsp-4 transcripts. The relative expression of hsp-3 and hsp-4 was normalized to the average signals of act-1/act-3.

BiP mRNA [1] = assay: Northern blot analysis of BiP mRNA in CHO cells; format: cell-based, Chinese hamster; settings: 2 μg/ml, 16 hours
Method: (§2) FIG. 17E depicts a Northern blot analysis of BiP and Xbp1 mRNA in S2P-deficient cells. Wild-type and S2P-deficient CHO cells were treated with or without 2 μg/ml tunicamycin for 16 hours prior to harvesting total RNA for Northern blot analysis using hamster BiP, XBP1-u and β-actin cDNA as probes.
(§3) Southern and Northern blot analysis followed standard procedures (Sambrook et al., 1989). [^32P]-labeled probes were prepared using a random prime labeling system (Amersham Pharmacia, Piscataway, N.J.). A 0.5-kb BamHI-XhoI fragment from the BS-mIRE1α targeting vector or a 3.6-kb EcoRI-XbaI fragment from pED-hIRE1α cDNA (Tirasophon et al., 2000) were used for Southern and Northern analysis, respectively. The probes for Northern analysis of mXbp1, BiP and GRP94 were a 0.94-kb XhoI fragment of pcDNA-mXbp1-u, the EcoRI-PstI fragment of hamster BiP (Ting et al., 1987), and a 146-bp PCR fragment of mouse GRP94 (from 142 to 287 of the coding region), respectively.

GRP94 mRNA = assay: Northern blot analysis of GRP94 mRNA in MEFs; format: cell-based, mouse; settings: 10 μg/ml, 6 hr
Method: (§4) FIGS. 12E and 12F depict a Northern blot analysis of wild-type and IRE1α-null MEFs. One blot was probed with [α-^32P]-labeled hamster BiP cDNA and β-actin cDNA (E) and another blot was probed with [α-^32P]-labeled mouse GRP94 DNA and β-actin cDNA (F).
as §3

IRE1 [2] = assay: XBP1-EGFP reporter of IRE1 activation in COS-1 cells; format: cell-based, monkey; settings: 10 ug/ml, after 8 and 16 hours
From the text: (§5) COS-1 monkey cells were transfected by either diethylaminoethyl (DEAE)-dextran (Kaufman, 1997) or Calcium Phosphate-BES methods (Ausubel et al, 1999). Chinese hamster ovary (CHO) cells were transfected by either lipofectAMINE PLUS (Life Technology) or FuGENE6 (Roche). Murine embryonic fibroblasts (MEFs) were transfected by either FuGENE6 (Roche) or Effectine (QIAGEN). IRE1 activation was monitored by immunoprecipitation and western analysis.
(§6) XBP1 splicing was also monitored by RT-PCR analysis of RNAs using primers designed to amplify the region encompassing the overlap between open reading frame 1 (ORF1) and ORF2 within XBP1 mRNA (see Lee et al., Genes and Dev. 2002). XBP1 splicing may also be monitored by assessing the expression of a reporter gene that is regulated by splicing of the XBP1 intron. The coding region of EGFP, Luciferase or β-galactosidase was fused to the mouse XBP1 ORF1 downstream of the XBP1 intron. Transcription of the construct is under control of the constitutively expressed CMV promoter. Therefore, expression of the XBP1-EGFP, XBP1-Luciferase or XBP1-β-galactosidase fusion protein is regulated by splicing of the XBP1 intron.
(§7) At 48 hours after transfection, cells were treated with 10 ug/ml tunicamycin to inhibit N-linked glycosylation. […] Therefore, this construct is instrumental in monitoring IRE1 activation.

BiP mRNA [3] = assay: Northern blot analysis of BiP mRNA in MEFs; format: cell-based, mouse; settings: tunicamycin for 6 hr
Method: as §4, §3

C. elegans = assay: survival to tunicamycin (eggs laid on plates, studied after 3 days); format: in vivo; settings: for animals arrested at or prior to the L3 stage / animals matured to the L4 stage or older / dead animals: after 3 days
From the text: Eggs from each strain were laid on plates containing different concentrations of tunicamycin, counted, and studied after 3 days. The number of eggs studied is listed above each column. The X-axis represents tunicamycin concentration. The total worm population was grouped into three fractions: animals that matured to L4 or older, animals that arrested at or prior to the L3 stage, and dead animals. Each fraction was plotted as the percentage of total eggs laid (Y-axis).
as §1

Xbp1 mRNA [4] = assay: Northern blot analysis of Xbp1 mRNA in CHO cells; format: cell-based, Chinese hamster; settings: 2 μg/ml, 16 hours
Method: as §2, §3

IRE1 [5] = assay: XBP1-EGFP reporter of IRE1 activation in murine embryonic fibroblast cells; format: cell-based
From the text: as §5, §6, §7

Xbp1 mRNA [6] = assay: Northern blot analysis of Xbp1 mRNA in MEFs; format: cell-based, mouse; settings: 10 μg/ml, 6 hr
Method: FIG. 15F depicts a Northern blot analysis of Xbp1 mRNA in IRE1α-null MEFs. Wild-type and IRE1α-null MEFs were treated with or without 10 μg/ml tunicamycin for 6 hr prior to harvesting total RNA for Northern blot analysis. The blots were probed with [α-^32P]-labeled 0.94-kb XhoI fragment of XBP1-u and [β-actin cDNA.
as §3

O[C@H](CS)[C@H](O)CS (racemic) [DTT, dithiothreitol]
hsp-3 induction (hsp-3; DTT 2.5 mM): ~9.3 fold
hsp-4 induction (hsp-4; DTT 2.5 mM): 61 fold

tunicamycin
BiP mRNA induction (BiP mRNA [1]; S2P-deficient CHO cells): 2.6 fold
BiP mRNA induction (BiP mRNA [1]; wild-type CHO cells): 34 fold
hsp-3 induction (hsp-3; tunicamycin 28 μg/ml): ~3.9 fold
GRP94 mRNA induction (GRP94 mRNA; IRE1α-null MEFs): 5.4 fold
GRP94 mRNA induction (GRP94 mRNA; wild-type MEFs): 6.7 fold
fluorescence of cells transfected with the XBP1-EGFP construct (IRE1 [2]): bright fluoresence
reduction of BiP mRNA induction in IRE1α-null MEFs compared with wild-type (BiP mRNA [3]): 10%
animals arrested at or prior to the L3 stage (C. elegans; IRE1(v33) mutants, 2 μg/ml): 60%
animals matured to the L4 stage or older (C. elegans; IRE1(v33) mutants, 2 μg/ml): 9%
dead animals (C. elegans; IRE1(v33) mutants, 2 μg/ml): 31%
animals arrested at or prior to the L3 stage (C. elegans; N2, 5 μg/ml): 29%
animals matured to the L4 stage or older (C. elegans; N2, 5 μg/ml): 8%
dead animals (C. elegans; N2, 5 μg/ml): 63%
concentration at which growth of N2 animals was affected (C. elegans; N2, plates with 0 to 7.5 μg/ml): ≥ 5 µg/mL
animals arrested at or prior to the L3 stage (C. elegans; PEK1(ok275) mutants, 2 μg/ml): 31%
animals matured to the L4 stage or older (C. elegans; PEK1(ok275) mutants, 2 μg/ml): 35%
dead animals (C. elegans; PEK1(ok275) mutants, 2 μg/ml): 34%
hsp-4 induction (hsp-4; tunicamycin 28 μg/ml): 29 fold
Xbp1 mRNA induction (Xbp1 mRNA [4]; S2P-deficient CHO cells): 2.9 fold
Xbp1 mRNA induction (Xbp1 mRNA [4]; wild-type CHO cells): 3.1 fold
fluorescence of cells expressing the XBP1-EGFP construct (IRE1 [5]; control murine embryonic fibroblast cells): intense fluorescsence
fluorescence of cells expressing the XBP1-EGFP construct (IRE1 [5]; murine embryonic fibroblast cells deleted in both IRE1α alleles): no fluorescence was detected
Xbp1 mRNA induction (Xbp1 mRNA [6]; IRE1α-null MEFs): 4.0 fold
Xbp1 mRNA induction (Xbp1 mRNA [6]; wild-type MEFs): 3.1 fold
